Paper PMC12030314, “Biomarker-Driven Pharmacokinetics and Efficacy of Polymyxin B in Critically Ill Patients with XDR-GN Pneumonia” (Pharmaceuticals, 2025)
Where a SMILES comes first, the peptide text is derived from it. Bridges are numbered along the chain shown (N, C = ends). [ ]: non-standard residue; d: D form. The star is where a group is joined. X1 = CC[C@H](C)CCCCC(=O)*; Dab = NCC[C@H](N)C(=O)O

Assay: Nephrotoxicity during PMB therapy
Format: in vivo, human
Method: Patient characteristics and laboratory data, including age, sex, weight, medical history, Acute Physiology And Chronic Health Evaluation (APACHE) II score, Sequential Organ Failure Assessment (SOFA) score, estimated creatinine clearance, arterial blood gas analysis, life support interventions, infection site, and type of pathogen, were recorded before PMB administration. The anti-infection therapeutic regimen, course, and incidence of PMB-related adverse reactions were recorded during the study. The creatinine clearance rate (CCr) was calculated with the formula: Ccr = (140 − age) × weight (kg)/[72 × serum creatinine (mg/dL)] for male and Ccr = (140 − age) × weight(kg)/[85 × serum creatinine (mg/dL)] for female. Nephrotoxicity was defined as an increase in serum creatinine of ≥0.3 mg/dL within 48 h or an increase in serum creatinine to ≥1.5 times higher than baseline.

CC[C@H](C)CCCCC(=O)N[C@@H](CCN)C(=O)N[C@H](C(=O)N[C@@H](CCN)C(=O)N[C@H]1CCNC(=O)[C@H]([C@@H](C)O)NC(=O)[C@H](CCN)NC(=O)[C@H](CCN)NC(=O)[C@H](CC(C)C)NC(=O)[C@@H](Cc2ccccc2)NC(=O)[C@H](CCN)NC1=O)[C@@H](C)O [PMB, polymyxin B] (X1-[Dab]T[Dab][Dab][Dab][dF]L[Dab][Dab]T; lactam 4-C)
Nephrotoxicity (Total (n = 27), serum creatinine increase ≥0.3 mg/dL within 48 h or ≥1.5 times baseline): 4 (14.81) n (%) | number of patients who suffered from nephrotoxicity (when PMB medication was administered, 27 patients): four
